Reference: patent US8569339B2, “Soluble guanylate cyclase activators” (Boehringer Ingelheim International GmbH, priority 2011, dated 2013)
≈ marks a conversion by molar mass, not a printed value. Where “and” joins values, the source holds several entries; their conditions need not be identical. Equal values may be shown once.

Columns and labels:
[1] = Assessment of solubility (HT solubility, pION, UV); type: physicochemical; conditions: incubated 16-19 hours, 1.0% DMSO, 100 uM; for solubility kinetic: pH 4.5 buffer (pION system solution), pH 4.5, aqueous buffer, kinetic from dmso stock, read-out: Sol pH 4.5; for Sol pH 7.4: pH 7.4 buffer
Method: Solubility is measured by the following method.
DMSO stock samples at 10 mM conc are prepared. […] The samples are pierced and 100 ul of thawed samples are transferred into the PCR plate for analysis. Each sample is run in duplicate at each pH (pH 4.5 and 7.4). Up to 95 samples can be run in replicate at 2 pH's+1 DMSO (blank).
2. Preparation of pH 4.5 and 7.4 buffers:
pH 4.5 buffer: To 12.5 of system solution (pION) qs to 500 mL of distilled water (pH 2.85-2.90); adjust the pH to pH 4.5 with 0.5 N NaOH.
pH 7.4 buffer: To 12.5 of system solution (pION) qs to 500 mL of distilled water (pH 2.85-2.90); adjust the pH to pH 7.4 with 0.5N NaOH.
Preparation of UV blank plate:
75 ul of buffer (pH 7.4 or pH 4.5) is added to UV plate followed by addition of […] of N-propanol. The solution is mixed and the blank spectrum is read using spectrophotometer.
Preparation of Reference UV plate:
10 ul of each stock sample (including DMSO control) is added to 190 ul of N-propanol to prepare the reference stock plate. Reference stock samples are mixed and 5 ul of each stock sample is added to UV blank plate after it is read spectrophotometrically. The reference stock sample is mixed with blank solution in UV plate and the reference spectrum is read using UV spectrophotometer.
Preparation of sample for incubation:
Solubility at pH 7.4: 6 ul of each stock sample (including DMSO control) is added to the storage plate containing 600 ul of pH 7.4 buffer, mixed and incubated for 16-19 hours. The plate is sealed well during the incubation process. The DMSO content in the sample is 1.0%. The concn in deep well plates is 100 uM
6 ul of each stock sample (including DMSO control) is added to the deep well plate containing 600 ul of pH 4.5 buffer, mixed and incubated for 16-19 hours. The plate is sealed well during the incubation process. The DMSO content in the sample is 1.0%. The concn in deep well plates is 100 uM
Preparation of sample UV plate:
At the end of the incubation period, 100 uL of sample from the storage plate is vacuum filtered using a filter plate. This step wets the filters and the filtrate is discarded. Another 200 ul of the sample from the deep well plate is vacuum filtered using the same filter block but a clean filter plate. 75 ul of the filtrate from the filter plate is transferred to a UV sample plate. 75 ul of N-propanol is added to this UV plate. The solution is mixed and the spectrum is read using the UV spectrophotometer.
The spectra collected for blank, reference and sample from 250-498 nm is analyzed using pION software. If the sample precipitates out, the solubility is reported as XX μg/ml. If there is no precipitation and the sample is soluble, solubility is reported as […] (YY being the initial concentration of the compound in the sample).

[2] = target: T1, Recombinant human soluble guanylate cyclase (sGC) (Homo sapiens, UniProt Q02153); assay: Molecular assay: activation of heme-free sGC, cGMP detection (CisBio kit); type: biochemical; conditions: 300 pM heme-free sGC, 37° C., 60 minutes, cGMP formation
T1 construct: histidine tag (C); made in house; host or cells: Sf9 insect cells (baculovirus coinfection)
T1 sequence (Q02108 whole entry partner): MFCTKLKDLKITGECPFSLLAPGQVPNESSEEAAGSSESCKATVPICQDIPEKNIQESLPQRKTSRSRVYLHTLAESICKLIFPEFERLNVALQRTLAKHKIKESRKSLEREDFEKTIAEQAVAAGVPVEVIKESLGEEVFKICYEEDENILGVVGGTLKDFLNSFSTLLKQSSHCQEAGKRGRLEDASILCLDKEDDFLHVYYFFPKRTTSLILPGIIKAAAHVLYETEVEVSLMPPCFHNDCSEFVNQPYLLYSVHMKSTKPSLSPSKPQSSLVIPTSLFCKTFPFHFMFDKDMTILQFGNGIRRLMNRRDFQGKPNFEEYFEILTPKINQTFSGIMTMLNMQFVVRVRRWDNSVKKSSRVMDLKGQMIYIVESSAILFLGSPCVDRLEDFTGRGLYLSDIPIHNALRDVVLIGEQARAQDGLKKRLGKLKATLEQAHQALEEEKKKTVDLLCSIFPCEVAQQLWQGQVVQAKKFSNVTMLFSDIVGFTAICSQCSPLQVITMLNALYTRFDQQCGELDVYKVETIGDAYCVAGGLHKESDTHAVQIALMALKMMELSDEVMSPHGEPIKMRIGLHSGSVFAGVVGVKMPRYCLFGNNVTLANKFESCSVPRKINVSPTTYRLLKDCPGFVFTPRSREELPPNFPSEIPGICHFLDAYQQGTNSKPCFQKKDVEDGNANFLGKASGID
T1 sequence (Q02153 whole entry): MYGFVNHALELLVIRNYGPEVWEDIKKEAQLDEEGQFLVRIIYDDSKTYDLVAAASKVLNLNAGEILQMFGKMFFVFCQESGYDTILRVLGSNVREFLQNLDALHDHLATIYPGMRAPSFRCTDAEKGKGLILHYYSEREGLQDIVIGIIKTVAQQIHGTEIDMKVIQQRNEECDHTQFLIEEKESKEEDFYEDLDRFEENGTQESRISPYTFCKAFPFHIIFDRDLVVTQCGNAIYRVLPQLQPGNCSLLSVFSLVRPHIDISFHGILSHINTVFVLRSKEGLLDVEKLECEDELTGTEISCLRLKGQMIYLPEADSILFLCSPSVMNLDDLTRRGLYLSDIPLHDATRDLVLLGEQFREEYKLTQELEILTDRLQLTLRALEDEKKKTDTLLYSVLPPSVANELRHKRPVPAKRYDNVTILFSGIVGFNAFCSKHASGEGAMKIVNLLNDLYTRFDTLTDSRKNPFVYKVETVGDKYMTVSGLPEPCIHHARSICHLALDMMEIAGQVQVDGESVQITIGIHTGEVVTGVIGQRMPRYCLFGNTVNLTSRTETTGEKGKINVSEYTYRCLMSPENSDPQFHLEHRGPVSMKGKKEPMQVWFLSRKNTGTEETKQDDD
Method: The compounds of the invention may be evaluated in the following molecular assay:
Recombinant human soluble guanylate cyclase (sGC) is purified from Sf9 insect cells coinfected with baculoviruses expressing the alpha 1 or beta 1 subunit of sGC, both with a C-terminal histidine tag. Heme-free sGC is prepared by treating cell lysate with a final concentration of 0.5% Tween 20 prior to purification on a nickel affinity column.
sGC catalyzes the conversion of guanosine-5′-triphosphate (GTP) to cyclic guanosine monophosphate (cGMP). The activity of sGC is measured in vitro using the commercially available CisBio cGMP detection kit (catalog #62GM2PEB) in a 384 well format. In brief, 300 pM heme-free sGC is incubated in reaction buffer (50 mM MOPS pH 6.8, 0.2 N KOH, 50 mM NaCl, 2 mM MgCl2, 0.1% BSA, 1.25 mM IBMX, 0.25 mM TCEP, 50 nM GTP) in the presence or absence of dilutions of test compounds diluted in DMSO (final concentration of 1%) in a volume of 10 microL at 37° C. for 60 minutes. Undiluted reaction products or an 80-fold dilution of reaction products (10 microL of either) prepared in reaction buffer containing 0.2 mM TCEP and 10 mM EDTA is mixed with 5 microL of d2-cGMP plus 5 microL of Eu^3+cryptate-labeled anti-cGMP, each diluted in buffer containing 0.1 M KPO4 pH 7.5, 0.4 M KF, 20 mM EDTA, 0.2% BSA. After a one hour incubation at room temperature in the dark, the mixtures are quantified on an EnVision plate reader (PerkinElmer) according to manufacturer instructions (laser excitation 337 nm, emission 620 and 665 nm). The ratio at each compound concentration is converted to nM cGMP using the linear portion of a calibration curve. Log compound concentration is plotted against combined undiluted and diluted nM cGMP values to determine the EC50 for each curve.
Representative compounds of the present invention were tested for activity in the above assay. Preferred compounds have an IC50<5,000 nM and more preferred compounds have an IC50<100 nM in this assay.

Row | solubility kinetic ([1]; pH 4.5 buffer) | Sol pH 7.4 [1] | EC50 [2] | Sol pH 4.5 ([1]; pH 4.5 buffer) | Compound
1 | 18.2 µg/mL (≈ 30.4 µM) | 25.6 μg/mL | 6 nM |  | Cc1ccc(OCc2ccc3c(c2)CCN(Cc2ccccc2)C3)c(-c2cccc(-n3ncc(C(=O)O)c3C(F)(F)F)n2)c1 [Compound 27]
2 | > 79 µg/mL | 44.4 μg/mL | 11 nM |  | Cc1ccc(OCc2ccc3c(c2C)CCN(CC2CCOC2)C3)c(-c2cccc(-c3csc(C(=O)O)c3C)n2)c1 (stereo not shown) [Compound 14]
3 | 7.8 µg/mL (≈ 12.7 µM) | 10.7 μg/mL | 4 nM |  | Cc1ccc(OCc2ccc3c(c2)CCN(CCc2ccccc2)C3)c(-c2cccc(-n3ncc(C(=O)O)c3C(F)(F)F)n2)c1 [Compound 20]
4 | > 66 µg/mL | >66 μg/mL and >68 μg/mL | 27 nM | >68 μg/mL | Cc1cccc(-c2cccc(-c3ncc(C(=O)O)n3C)n2)c1OCc1ccc2c(c1)CCN(C1CCC(F)(F)CC1)C2 [Compound 74]
5 | > 78 µg/mL | >78 μg/mL | 1100 nM |  | Cc1cccc(-c2cccc(-n3cnc(C(=O)O)c3C)n2)c1OCc1ccc2c(c1)CCN(C1CCOCC1)C2 [Compound 57, 5-methyl-1-[6-[3-methyl-2-[(2-tetrahydropyran-4-yl-3,4-dihydro-1H-isoquinolin-6-yl)methoxy]phenyl]-2-pyridyl]imidazole-4-carboxylic acid]
6 | > 58 µg/mL | >58 μg/mL | 2 nM |  | Cc1ccc(OCc2ccc3c(c2)CCN(C2CCCCC2)C3)c(-c2cccc(-n3ncc(C(=O)O)c3C(F)(F)F)n2)c1 [Compound 19]
7 | > 81 µg/mL | >81 μg/mL | 155 nM |  | Cc1ccc(OCc2ccc3c(c2C)CCN(C2CCOCC2)C3)c(-c2cccc(-c3c(C)c(C(=O)O)nn3C)n2)c1 [Compound 80]
8 | > 66 µg/mL | >66 μg/mL | 100 nM |  | Cc1cccc(-c2cccc(-c3ncc(C(=O)O)n3C)n2)c1OCc1ccc2c(c1)CCN(C1CCCCCC1)C2 [Compound 76]
9 | 48.4 µg/mL (≈ 87.6 µM) | 31.7 μg/mL | 185 nM |  | Cc1cccc(-c2cccc(-c3c(C)c(C(=O)O)nn3C)n2)c1OCc1ccc2c(c1)CCN(C1CCOCC1)C2 [Compound 81]
10 | > 69 µg/mL | >69 μg/mL | 50 nM |  | Cc1cccc(-c2cccc(-c3c(C)c(C(=O)O)nn3C(C)C)n2)c1OCc1ccc2c(c1)CCN(C1CCOCC1)C2 [Compound 83]
11 | > 63 µg/mL | 42.1 μg/mL | 550 nM |  | Cc1ccc(OCc2ccc3c(c2)CN(C)CC3)c(-c2cccc(-n3ncc(C(=O)O)c3C(F)(F)F)n2)c1 [Compound 52]
12 | 15.4 µg/mL (≈ 32.9 µM) | 19.6 μg/mL | 1700 nM |  | Cc1ccc(OCc2ccc3c(c2)CCN(C)C3)c(-c2cccc(-n3ncc(C(=O)O)c3C)n2)c1 [Compound 43, 5-methyl-1-{6-[5-methyl-2-(2-methyl-1,2,3,4-tetrahydro-isoquinolin-6-ylmethoxy)phenyl]pyridin-2-yl}-1H-pyrazole-4-carboxylic acid]
13 | > 65 µg/mL | >65 μg/mL | 775 nM |  | Cc1cccc(-c2cccc(-c3onc(C(=O)O)c3C)n2)c1OCc1ccc2c(c1)CCN(C1CCOCC1)C2 [Compound 86, 4-methyl-5-[6-[3-methyl-2-[(2-tetrahydropyran-4-yl-3,4-dihydro-1H-isoquinolin-6-yl)methoxy]phenyl]-2-pyridyl]isoxazole-3-carboxylic acid]
14 | 0.95 µg/mL (≈ 1.87 µM) | >50 μg/mL | 280 nM |  | Cc1ccc(OCc2ccc3c(c2)nnn3C)c(-c2cccc(-n3ncc(C(=O)O)c3C(F)(F)F)n2)c1 [Compound 10]
15 | > 58 µg/mL | 11.8 μg/mL | 4540 nM |  | Cc1ccc(OCc2ccc3c(c2)CCN(C)C3)c(-c2cccc(-c3ncc(C(=O)O)n3C)n2)c1 [Compound 41]
16 | > 110 µg/mL | >110 μg/mL | 4200 nM |  | Cc1cccc(-c2cccc(-c3nc(C)c(C(=O)O)s3)n2)c1OCc1ccc2c(c1)CCN(C1CCOCC1)C2 [Compound 59, 4-methyl-2-[6-[3-methyl-2-[(2-tetrahydropyran-4-yl-3,4-dihydro-1H-isoquinolin-6-yl)methoxy]phenyl]-2-pyridyl]thiazole-5-carboxylic acid]
17 | > 64 µg/mL | >64 μg/mL | 19 nM |  | Cc1cccc(-c2cccc(-c3csc(C(=O)O)c3C)n2)c1OCc1ccc2c(c1)CCN(C1CCOCC1)C2 [Compound 60]
18 | 0.1 µg/mL (≈ 0.206 µM) | 5.7 μg/mL | 2000 nM |  | Cc1ccc(OCc2ccc3c(c2)CCN(C)C3)c(-c2cccc(-c3csc(C(=O)O)c3C)n2)c1 [Compound 46, 3-methyl-4-{6-[5-methyl-2-(2-methyl1,2,3,4-tetrahydroisoquinolin-6-ylmethoxy)phenyl]pyridin-2-yl}thiophene-2-carboxylic acid]
19 | 49 µg/mL (≈ 80 µM) | 50.2 μg/mL | 15 nM |  | Cc1cccc(-c2cccc(-c3c(C)c(C(=O)O)nn3C3CC3)n2)c1OCc1ccc2c(c1)CCN(C1CCC(F)(F)CC1)C2 [Compound 90]
20 | 40 µg/mL (≈ 66.6 µM) | >59 μg/mL | 9 nM |  | Cc1ccc(OCc2ccc3c(c2)CCN(Cc2cnccn2)C3)c(-c2cccc(-n3ncc(C(=O)O)c3C(F)(F)F)n2)c1 [Compound 24]
21 | > 66 µg/mL | >66 μg/mL | 37 nM |  | Cc1ncc(CN2CCc3cc(COc4c(C)cccc4-c4cccc(-c5ncc(C(=O)O)n5C)n4)ccc3C2)s1 [Compound 70]
22 | 13.7 µg/mL (≈ 23.5 µM) | 13.4 μg/mL | 380 nM |  | Cc1ccc(OCc2ccc3c(c2)CCN(Cc2nc(C)cs2)C3)c(-c2cccc(-c3csc(C(=O)O)c3C)n2)c1 [Compound 50]
23 | 0.4 µg/mL (≈ 0.699 µM) | >54 μg/mL | 67 nM |  | Cc1ccc(OCc2ccc3c(c2)CCN3S(C)(=O)=O)c(-c2cccc(-n3ncc(C(=O)O)c3C(F)(F)F)n2)c1 [Compound 9, 1-{6-[2-(1-methanesulfonyl-2,3-dihydro-1H-indol-5-ylmethyoxy)-5-methylphenyl]pyridin-2-yl}-5-trifluoromethyl-1H-pyrazole-4-carboxylic acid]
